Measured values: patent publication US6509153B1, “Genetic markers of toxicity preparation and uses” (Exonhit Therapeutics SA, priority 1999, dated 2003)
Counter-ions that a name gives are not always drawn.

Tested on: HepG2 cells
Assay: hybridization of probes from treated HepG2 cells on p53 apoptosis filter (toxicity index)
Format: cell-based
Details: HepG2 cells treated at IC80 concentration, compared with aspirin
From the text: (§1) HepG2 cells are then individually treated with different compounds with different levels of toxicity.
With `O=C(O)Cc1ccccc1Nc1c(Cl)cccc1Cl` [Diclofenac] the “splicing events identical to those induced by p53-related toxicity (toxicity index ranking)” value was “generates more splicing events identical to those induced by p53 -related toxicity than aspirin”.

Tested on: not listed separately
Assay: cell viability test (MTT) used to calculate the IC80 concentration
Format: cell-based
Details: human; HepG2 cells, exposure time 4 h; read-out: Concentration (corresponds to an IC80, MTT)
From the text: as §1
`CC[C@@]1(O)C(=O)OCc2c1cc1n(c2=O)Cc2cc3ccccc3nc2-1` [Camptothecin] gave an IC80 at 4 h of 1 µg/mL.
With `CCO` [Ethanol] the IC80 at 4 h was 100 mM.

Same assay, conditions: human; HepG2 cells, exposure time 18 h; read-out: Concentration (corresponds to an IC80, MTT)
`CC(=O)Oc1ccccc1C(=O)O` [Aspirin] gave an IC80 at 18 h of 2000 µM.
`Clc1cccc(Cl)c1N=C1NCCN1` [Clonidine] showed an IC80 at 18 h of 150 µM.
Work on `C[C@@H]1C[C@@H]([C@H](O)CC2CC(=O)NC(=O)C2)C(=O)[C@@H](C)C1` [Cycloheximide] yielded an IC80 at 18 h of 5 µg/mL.
In the case of `O=C(O)Cc1ccccc1Nc1c(Cl)cccc1Cl` [Diclofenac], the IC80 at 18 h is reported as 50 µg/mL.
`CNC[C@H](O)c1ccc(O)c(O)c1` [Epinephrine Hydrate] showed an IC80 at 18 h of 50 µg/mL.
For `CC[C@H]1OC(=O)[C@H](C)[C@@H](O[C@H]2C[C@@](C)(OC)[C@@H](O)[C@H](C)O2)[C@H](C)[C@@H](O[C@@H]2O[C@H](C)C[C@H](N(C)C)[C@H]2O)[C@](C)(O)C[C@@H](C)C(=O)[C@H](C)[C@@H](O)[C@]1(C)O` [Erythromycin], the IC80 at 18 h was 2.5 µg/mL.
Work on `COc1cc([C@@H]2c3cc4c(cc3[C@@H](O[C@@H]3O[C@@H]5CO[C@@H](C)O[C@H]5[C@H](O)[C@H]3O)[C@H]3COC(=O)[C@H]23)OCO4)cc(OC)c1O` [Etoposide] yielded an IC80 at 18 h of 50 µg/mL.
With `CN(Cc1cnc2nc(N)nc(N)c2n1)c1ccc(C(=O)N[C@@H](CCC(=O)O)C(=O)O)cc1` [Methotrexate] the IC80 at 18 h was 0.5 µM.
Work on `CC(=O)Nc1ccc(O)cc1` [Paracetamol] yielded an IC80 at 18 h of 1000 µM.
Compound `CN[C@@H]1C[C@H]2O[C@@](C)([C@@H]1OC)n1c3ccccc3c3c4c(c5c6ccccc6n2c5c31)C(=O)NC4` [Staurosporine] has an IC80 of 50 nM.
Work on `CC(C)(C)NCC(O)c1cc(O)cc(O)c1` (stereo not shown) [Terbutaline Sulfate] yielded an IC80 at 18 h of 0.2 µg/mL.
Compound `CC(C)[C@@H]1NC(=O)[C@H](C)OC(=O)[C@@H](C(C)C)NC(=O)[C@@H](C(C)C)OC(=O)[C@H](C(C)C)NC(=O)[C@H](C)OC(=O)[C@@H](C(C)C)NC(=O)[C@@H](C(C)C)OC(=O)[C@H](C(C)C)NC(=O)[C@H](C)OC(=O)[C@@H](C(C)C)NC(=O)[C@@H](C(C)C)OC1=O` [Valinomycin] has an IC80 at 18 h of 0.015 µM.
`CC[C@]1(O)C[C@@H]2CN(CCc3c([nH]c4ccccc34)[C@@](C(=O)OC)(c3cc4c(cc3OC)N(C)[C@H]3[C@@](O)(C(=O)OC)[C@H](OC(C)=O)[C@]5(CC)C=CCN6CC[C@]43[C@@H]65)C2)C1` [Vinblastine Sulfate] showed an IC80 at 18 h of 30 µM.
